SMILES strings stand for the structures.

The target in assay [1] is Fibroblast growth factor receptor (Homo sapiens) (UniProt P22607+P11362+P22455+P21802). Description: Inhibition of FGFR (unknown origin) at 10 uM relative to control. The class given is protein assay.
The target in assay [2] is T1, High affinity nerve growth factor receptor (Homo sapiens, UniProt P04629). Description: Inhibition of TRKA (unknown origin) at 10 uM relative to control.
The target of assay [3] is T2, Receptor-type tyrosine-protein kinase FLT3 (Homo sapiens, UniProt P36888).
T2 sequence (P36888 whole entry): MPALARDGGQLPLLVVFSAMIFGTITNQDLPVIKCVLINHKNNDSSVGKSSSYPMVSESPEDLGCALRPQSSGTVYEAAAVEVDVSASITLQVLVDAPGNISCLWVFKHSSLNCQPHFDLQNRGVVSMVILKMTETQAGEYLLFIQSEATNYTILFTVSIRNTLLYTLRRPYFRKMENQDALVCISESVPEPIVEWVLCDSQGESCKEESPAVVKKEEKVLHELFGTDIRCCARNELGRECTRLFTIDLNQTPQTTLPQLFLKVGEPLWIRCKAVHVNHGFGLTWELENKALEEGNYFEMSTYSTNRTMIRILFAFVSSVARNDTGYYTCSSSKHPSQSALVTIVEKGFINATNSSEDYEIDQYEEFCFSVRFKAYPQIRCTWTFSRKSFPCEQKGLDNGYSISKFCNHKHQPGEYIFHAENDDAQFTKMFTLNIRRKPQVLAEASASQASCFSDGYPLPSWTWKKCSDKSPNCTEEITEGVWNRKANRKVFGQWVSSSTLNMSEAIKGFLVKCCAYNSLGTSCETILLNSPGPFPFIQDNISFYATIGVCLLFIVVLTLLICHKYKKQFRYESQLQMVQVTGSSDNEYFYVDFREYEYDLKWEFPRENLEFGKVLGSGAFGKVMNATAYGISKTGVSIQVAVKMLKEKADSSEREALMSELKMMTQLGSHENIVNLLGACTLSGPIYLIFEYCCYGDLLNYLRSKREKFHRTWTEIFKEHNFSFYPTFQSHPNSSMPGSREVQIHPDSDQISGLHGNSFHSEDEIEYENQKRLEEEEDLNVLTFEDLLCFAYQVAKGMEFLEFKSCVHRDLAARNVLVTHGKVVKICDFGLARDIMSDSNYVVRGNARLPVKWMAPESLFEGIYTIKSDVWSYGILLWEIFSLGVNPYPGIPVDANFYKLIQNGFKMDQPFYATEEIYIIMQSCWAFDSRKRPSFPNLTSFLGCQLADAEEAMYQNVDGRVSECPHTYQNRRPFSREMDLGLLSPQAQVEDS
Description: Inhibition of FLT3 (unknown origin).

The next assay is filed under the species Homo sapiens. Description: Inhibition of FLT (unknown origin) at 10 uM relative to control.
Assay [4] has as its target Maternal embryonic leucine zipper kinase (Homo sapiens) (UniProt Q14680). In words: Inhibition of MELK (unknown origin) at 10 uM relative to control.
For assay [5], the target named is Receptor-type tyrosine-protein kinase FLT3 (Homo sapiens, UniProt P36888, D835Y). In words: Inhibition of FLT3 D835Y (unknown origin).
Assay [6] concerns the target T1, High affinity nerve growth factor receptor. Description: Inhibition of TRKA (unknown origin).
Assay [7] has as its target Protein kinase C (PKC) (Homo sapiens) (UniProt O94806+P41743+P17252+P05129+Q05655+P05771+Q05513+Q02156+P24723+Q15139+Q04759). Description: Inhibition of PKC (unknown origin) at 10 uM relative to control. Format: protein assay.
Assay [8] concerns the target Tyrosine-protein kinase BTK (Homo sapiens, UniProt Q06187). In words: Inhibition of BTK (unknown origin).
Assay [9] has as its target Tyrosine-protein kinase JAK2 (Homo sapiens) (UniProt O60674). Description: Inhibition of JAK2 (unknown origin) at 1 uM relative to control.
The target of assay [10] is T3, Macrophage colony-stimulating factor 1 receptor (Homo sapiens, UniProt P07333). Description: Inhibition of FMS (unknown origin).
Assay [11] addresses Fibroblast growth factor receptor 1 (Homo sapiens, UniProt P11362). In words: Inhibition of FGFR1 (unknown origin).
In assay [12] the target is Fibroblast growth factor receptor 3 (Homo sapiens, UniProt P22607). Description: Inhibition of FGFR3 (unknown origin).
For assay [13], the target named is Fibroblast growth factor receptor 2 (Homo sapiens, UniProt P21802). In words: Inhibition of FGFR2 (unknown origin).
Assay [14] deals with Fibroblast growth factor receptor 4 (Homo sapiens, UniProt P22455). Description: Inhibition of FGFR4 (unknown origin).
The target of assay [15] is Serine/threonine-protein kinase B-raf (Homo sapiens, UniProt P15056). In words: Inhibition of BRAF (unknown origin).
Assay [16] concerns the target T3, Macrophage colony-stimulating factor 1 receptor. In words: Inhibition of CSF1R (unknown origin).
A further assay concerns the target Adenosine receptor A2a (Homo sapiens, UniProt P29274). In words: Binding affinity to adenosine receptor A2a (unknown origin) assessed as inhibition constant.
Another assay has as its target T4, Adenosine receptor A1 (Homo sapiens, UniProt P30542).
T4 sequence (P30542 whole entry): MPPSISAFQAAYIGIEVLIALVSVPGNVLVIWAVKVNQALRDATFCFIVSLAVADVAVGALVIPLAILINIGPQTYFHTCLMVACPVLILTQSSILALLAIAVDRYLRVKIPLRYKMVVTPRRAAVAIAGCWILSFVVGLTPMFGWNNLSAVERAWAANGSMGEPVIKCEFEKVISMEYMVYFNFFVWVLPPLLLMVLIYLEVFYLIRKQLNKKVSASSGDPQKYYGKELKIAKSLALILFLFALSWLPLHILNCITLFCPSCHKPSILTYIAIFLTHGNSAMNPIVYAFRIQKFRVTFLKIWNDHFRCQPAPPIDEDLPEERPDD
In words: Binding affinity to adenosine receptor A1 (unknown origin) assessed as inhibition constant.

Tyrosine-protein kinase JAK2 (Homo sapiens), sequence (O60674 whole entry): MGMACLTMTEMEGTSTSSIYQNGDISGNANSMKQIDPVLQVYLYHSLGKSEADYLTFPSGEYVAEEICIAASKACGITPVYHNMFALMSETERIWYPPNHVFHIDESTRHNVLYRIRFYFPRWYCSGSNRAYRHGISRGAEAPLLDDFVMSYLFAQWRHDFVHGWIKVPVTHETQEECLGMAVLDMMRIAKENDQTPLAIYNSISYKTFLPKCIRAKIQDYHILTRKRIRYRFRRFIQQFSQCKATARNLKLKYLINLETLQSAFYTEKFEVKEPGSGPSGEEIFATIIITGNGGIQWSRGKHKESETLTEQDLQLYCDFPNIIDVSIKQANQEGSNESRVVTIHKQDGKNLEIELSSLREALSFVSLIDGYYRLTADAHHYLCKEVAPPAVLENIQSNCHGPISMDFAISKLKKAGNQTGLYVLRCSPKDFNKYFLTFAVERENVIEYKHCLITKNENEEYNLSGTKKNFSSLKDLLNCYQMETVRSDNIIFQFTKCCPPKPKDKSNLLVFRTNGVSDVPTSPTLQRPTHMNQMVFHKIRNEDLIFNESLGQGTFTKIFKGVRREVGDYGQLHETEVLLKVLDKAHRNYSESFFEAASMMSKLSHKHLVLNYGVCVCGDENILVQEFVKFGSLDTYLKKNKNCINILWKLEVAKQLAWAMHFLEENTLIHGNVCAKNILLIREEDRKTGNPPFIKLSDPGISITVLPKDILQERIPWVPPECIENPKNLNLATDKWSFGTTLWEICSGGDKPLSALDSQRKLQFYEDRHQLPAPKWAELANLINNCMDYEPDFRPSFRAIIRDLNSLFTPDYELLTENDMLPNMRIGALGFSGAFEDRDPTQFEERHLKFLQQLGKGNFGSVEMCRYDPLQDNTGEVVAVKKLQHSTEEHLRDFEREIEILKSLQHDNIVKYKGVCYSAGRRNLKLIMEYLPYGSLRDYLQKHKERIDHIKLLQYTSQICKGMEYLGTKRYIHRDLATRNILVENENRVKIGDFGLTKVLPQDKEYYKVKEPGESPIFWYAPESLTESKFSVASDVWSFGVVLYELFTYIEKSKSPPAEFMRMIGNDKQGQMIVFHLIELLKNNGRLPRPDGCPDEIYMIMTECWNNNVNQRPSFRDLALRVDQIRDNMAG
T3 sequence (P07333 whole entry): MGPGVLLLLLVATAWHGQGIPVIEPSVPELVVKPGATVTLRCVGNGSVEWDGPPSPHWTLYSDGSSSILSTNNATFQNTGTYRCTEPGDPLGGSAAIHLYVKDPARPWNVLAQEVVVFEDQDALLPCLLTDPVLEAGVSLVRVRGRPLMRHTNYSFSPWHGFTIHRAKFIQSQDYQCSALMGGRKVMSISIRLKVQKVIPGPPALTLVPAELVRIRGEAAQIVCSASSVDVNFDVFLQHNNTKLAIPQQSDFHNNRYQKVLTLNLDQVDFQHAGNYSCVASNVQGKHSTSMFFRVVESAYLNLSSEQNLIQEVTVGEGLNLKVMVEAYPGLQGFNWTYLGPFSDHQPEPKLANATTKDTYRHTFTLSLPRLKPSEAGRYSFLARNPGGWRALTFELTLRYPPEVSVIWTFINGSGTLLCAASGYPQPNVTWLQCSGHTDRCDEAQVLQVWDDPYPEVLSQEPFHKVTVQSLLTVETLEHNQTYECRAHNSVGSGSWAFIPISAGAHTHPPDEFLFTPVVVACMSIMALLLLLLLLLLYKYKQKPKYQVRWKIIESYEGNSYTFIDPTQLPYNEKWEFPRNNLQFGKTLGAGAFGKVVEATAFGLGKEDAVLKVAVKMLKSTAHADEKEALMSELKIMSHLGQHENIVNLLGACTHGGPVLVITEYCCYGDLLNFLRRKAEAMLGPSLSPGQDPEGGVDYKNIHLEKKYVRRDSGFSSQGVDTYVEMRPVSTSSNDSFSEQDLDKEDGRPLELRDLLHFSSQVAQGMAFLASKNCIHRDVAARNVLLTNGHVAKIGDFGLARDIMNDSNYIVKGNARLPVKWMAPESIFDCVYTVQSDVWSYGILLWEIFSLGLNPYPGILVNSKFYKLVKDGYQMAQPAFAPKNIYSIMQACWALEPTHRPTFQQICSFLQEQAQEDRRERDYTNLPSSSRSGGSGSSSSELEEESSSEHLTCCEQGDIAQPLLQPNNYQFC
Fibroblast growth factor receptor 1, sequence (P11362 whole entry): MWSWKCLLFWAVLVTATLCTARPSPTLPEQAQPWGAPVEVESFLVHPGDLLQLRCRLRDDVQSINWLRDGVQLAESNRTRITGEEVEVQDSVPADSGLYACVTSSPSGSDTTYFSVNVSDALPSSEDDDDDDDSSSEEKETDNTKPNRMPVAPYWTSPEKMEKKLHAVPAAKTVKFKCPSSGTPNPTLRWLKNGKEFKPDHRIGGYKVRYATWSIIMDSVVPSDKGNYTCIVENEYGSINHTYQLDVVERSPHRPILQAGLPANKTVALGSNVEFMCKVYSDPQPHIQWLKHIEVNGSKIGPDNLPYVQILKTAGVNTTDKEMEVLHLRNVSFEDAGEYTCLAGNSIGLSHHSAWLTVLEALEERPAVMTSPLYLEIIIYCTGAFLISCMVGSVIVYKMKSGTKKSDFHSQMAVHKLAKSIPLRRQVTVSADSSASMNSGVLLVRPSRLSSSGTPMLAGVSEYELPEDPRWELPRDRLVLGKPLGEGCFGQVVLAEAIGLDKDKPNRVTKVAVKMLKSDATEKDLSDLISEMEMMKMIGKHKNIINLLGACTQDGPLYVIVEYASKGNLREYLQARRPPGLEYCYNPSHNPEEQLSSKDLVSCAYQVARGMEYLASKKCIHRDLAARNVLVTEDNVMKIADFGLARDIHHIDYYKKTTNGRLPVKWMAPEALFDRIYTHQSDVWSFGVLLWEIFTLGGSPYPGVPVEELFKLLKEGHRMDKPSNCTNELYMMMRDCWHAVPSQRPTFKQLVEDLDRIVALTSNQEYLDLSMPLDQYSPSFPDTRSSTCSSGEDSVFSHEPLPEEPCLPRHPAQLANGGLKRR
Maternal embryonic leucine zipper kinase (Homo sapiens), sequence (Q14680 whole entry, looked up): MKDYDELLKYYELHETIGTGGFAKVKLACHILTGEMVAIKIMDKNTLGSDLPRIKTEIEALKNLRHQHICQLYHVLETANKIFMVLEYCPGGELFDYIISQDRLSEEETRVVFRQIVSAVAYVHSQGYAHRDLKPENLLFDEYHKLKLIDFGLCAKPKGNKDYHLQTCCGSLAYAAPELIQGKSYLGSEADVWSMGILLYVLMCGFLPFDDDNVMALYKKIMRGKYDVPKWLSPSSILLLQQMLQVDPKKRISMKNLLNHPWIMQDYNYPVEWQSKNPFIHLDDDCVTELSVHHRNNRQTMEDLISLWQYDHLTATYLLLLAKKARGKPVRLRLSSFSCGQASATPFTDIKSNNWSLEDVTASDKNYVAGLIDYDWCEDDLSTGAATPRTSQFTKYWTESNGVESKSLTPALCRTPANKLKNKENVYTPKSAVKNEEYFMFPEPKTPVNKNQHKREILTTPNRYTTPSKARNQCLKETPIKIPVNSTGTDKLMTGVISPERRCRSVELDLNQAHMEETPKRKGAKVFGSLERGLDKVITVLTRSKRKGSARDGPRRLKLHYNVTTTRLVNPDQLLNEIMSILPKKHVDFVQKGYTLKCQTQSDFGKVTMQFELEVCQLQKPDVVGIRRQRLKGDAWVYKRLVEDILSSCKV
Fibroblast growth factor receptor 4, sequence (P22455 whole entry): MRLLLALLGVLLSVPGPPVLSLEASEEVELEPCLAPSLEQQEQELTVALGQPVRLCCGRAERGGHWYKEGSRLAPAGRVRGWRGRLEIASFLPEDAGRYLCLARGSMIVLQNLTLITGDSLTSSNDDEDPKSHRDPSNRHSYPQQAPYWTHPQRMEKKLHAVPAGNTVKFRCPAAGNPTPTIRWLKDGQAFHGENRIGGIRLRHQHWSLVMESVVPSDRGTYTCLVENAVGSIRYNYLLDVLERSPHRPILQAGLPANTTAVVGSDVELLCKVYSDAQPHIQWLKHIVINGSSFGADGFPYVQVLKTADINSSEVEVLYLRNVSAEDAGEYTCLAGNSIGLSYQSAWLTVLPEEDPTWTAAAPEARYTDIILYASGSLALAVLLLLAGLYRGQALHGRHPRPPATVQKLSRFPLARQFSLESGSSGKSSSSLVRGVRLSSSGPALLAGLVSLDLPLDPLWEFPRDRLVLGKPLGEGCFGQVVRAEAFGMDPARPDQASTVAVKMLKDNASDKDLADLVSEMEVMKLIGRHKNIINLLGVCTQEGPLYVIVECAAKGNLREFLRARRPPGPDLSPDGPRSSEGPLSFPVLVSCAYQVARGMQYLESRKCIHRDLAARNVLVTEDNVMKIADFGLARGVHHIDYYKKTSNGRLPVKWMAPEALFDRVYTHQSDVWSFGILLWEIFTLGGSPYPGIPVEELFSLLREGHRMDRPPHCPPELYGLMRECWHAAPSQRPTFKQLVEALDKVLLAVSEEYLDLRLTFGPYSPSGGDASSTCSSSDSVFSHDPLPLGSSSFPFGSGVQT
Tyrosine-protein kinase BTK, sequence (Q06187 whole entry): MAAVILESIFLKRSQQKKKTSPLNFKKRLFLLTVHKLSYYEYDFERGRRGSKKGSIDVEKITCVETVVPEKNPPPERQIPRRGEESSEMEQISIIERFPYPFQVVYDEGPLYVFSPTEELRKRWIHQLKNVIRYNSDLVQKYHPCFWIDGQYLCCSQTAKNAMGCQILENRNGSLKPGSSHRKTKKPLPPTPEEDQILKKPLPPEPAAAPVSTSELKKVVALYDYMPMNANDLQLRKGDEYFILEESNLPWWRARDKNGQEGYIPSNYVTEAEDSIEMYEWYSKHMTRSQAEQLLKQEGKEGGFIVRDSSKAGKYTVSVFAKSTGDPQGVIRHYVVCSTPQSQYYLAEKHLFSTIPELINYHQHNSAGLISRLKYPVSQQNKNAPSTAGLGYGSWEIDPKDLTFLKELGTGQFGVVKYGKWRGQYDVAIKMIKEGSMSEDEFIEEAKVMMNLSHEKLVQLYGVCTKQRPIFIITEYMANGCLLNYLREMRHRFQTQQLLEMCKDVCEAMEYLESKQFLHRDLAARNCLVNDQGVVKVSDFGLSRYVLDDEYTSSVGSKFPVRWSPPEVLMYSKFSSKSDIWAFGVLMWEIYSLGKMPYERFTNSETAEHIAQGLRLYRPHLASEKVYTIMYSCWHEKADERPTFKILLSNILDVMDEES

What is called inhibition is the share of the control response that was lost under treatment. As usually defined, the IC50 is the concentration needed to halve the response being measured. A high value points to lower potency. Turning to `CN(C)S(=O)(=O)Nc1cccc(-c2cnn(-c3ccc(C(F)(F)F)cc3)c2)c1`, the inhibition in [1] came to 35%; in assay [2], 55%; in the assay listed under Homo sapiens, 45%; in [4], 35%; in [7], 35%. The IC50 amounted to 13.6 µM in assay [3], 1.83 µM in assay [5] and 5.8 µM in [6].

In assay [8], `COc1ccc(F)cc1C(=O)NCc1ccc(-c2nn(C3CCCC3)c3c(=O)[nH]nc(N)c23)cc1` came in with a half-inhibitory concentration (IC50) of 0.0005 µM.

In the case of `CNC(=O)c1ccccc1Nc1c(C(F)(F)F)cnc2[nH]c(-c3ccc(F)cc3)cc12`, in assay [9], the inhibition stood at 88%.

As for `CN(c1ncccc1CNc1c(C#N)cnc2[nH]ccc12)S(C)(=O)=O`, the inhibition in assay [9] amounted to 68%.

Regarding `COc1ncc(CNc2ccc(Cc3c[nH]c4ncc(C(F)(F)F)cc34)c(F)n2)cc1F`, the IC50 in assay [10] and in [3] was below 0.1 µM throughout.

In the case of `C=CC(=O)N1CC[C@H](n2cc(-c3cc4ccccc4o3)c3c(N)n[nH]c(=O)c32)C1`, the IC50 in assay [11], in assay [12], in assay [13] and in assay [14] was below 0.01 µM throughout.

As usually defined, the EC50 is the concentration giving half of the maximal effect. In assay [15], `COc1cncc(-c2cn(-c3c(F)ccc(NS(=O)(=O)C(C)C)c3F)nn2)c1` returned an EC50 of 0.493 µM.

In assay [16], `O=C(NCc1ccc(C(F)(F)F)nc1)Nc1ccc(Oc2ncnc3[nH]ccc23)cc1` returned an IC50 of 0.02 µM.

As usually defined, the Ki is the dissociation constant of the complex between target and ligand, obtained from inhibition or displacement. `O=c1[nH]nc(NC2CCCC2)c2nnn(Cc3cccs3)c12`: the Ki on Adenosine receptor A2a was 0.895 µM; on Adenosine receptor A1, 0.0467 µM.

These data come from ChEMBL document CHEMBL5360607, “The Hitchhiker's Guide to Deep Learning Driven Generative Chemistry” (ACS Med Chem Lett, 2023).
